The results in this text go back to PubChem BioAssay AID493133 (Sanford-Burnham Center for Chemical Genomics, 2011).

The source made the active and inactive calls. The rule behind the calls is not given here.

Chain of Alkaline phosphatase, tissue-nonspecific isozyme (Homo sapiens) (P05186 whole entry, looked up): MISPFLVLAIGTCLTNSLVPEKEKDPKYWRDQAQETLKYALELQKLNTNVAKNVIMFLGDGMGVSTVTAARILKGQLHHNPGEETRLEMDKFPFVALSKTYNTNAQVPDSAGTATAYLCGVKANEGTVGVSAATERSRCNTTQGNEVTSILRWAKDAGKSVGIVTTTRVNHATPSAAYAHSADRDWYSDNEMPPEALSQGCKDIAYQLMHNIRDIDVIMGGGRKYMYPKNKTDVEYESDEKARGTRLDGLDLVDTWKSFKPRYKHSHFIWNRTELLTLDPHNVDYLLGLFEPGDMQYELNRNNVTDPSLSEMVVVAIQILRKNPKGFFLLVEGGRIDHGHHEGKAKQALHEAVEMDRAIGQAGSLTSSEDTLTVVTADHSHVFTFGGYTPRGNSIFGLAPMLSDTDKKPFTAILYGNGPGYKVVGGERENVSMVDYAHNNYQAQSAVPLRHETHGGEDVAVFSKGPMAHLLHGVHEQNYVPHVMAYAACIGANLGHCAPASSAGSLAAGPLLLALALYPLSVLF

The experiment addresses Alkaline phosphatase, tissue-nonspecific isozyme (Homo sapiens) (UniProt P05186). In words: human TNAP activity change by analogs – biochemical, selectivity assay for mouse IAP activator project, SAR follow-up (AID 493133). Conditions: purified human TNAP enzyme, phosphatase activity counter-screen. Background: A counterscreen serves to expose hits that act by an unwanted route or on another target.
The term EC50 denotes the concentration that produces a half-maximal response. Consider `COc1ccc(OC)c(NC(=O)CSc2sc3c(O)cc(=O)[nH]c3c2C#N)c1`, for which the EC50 was > 100 µM (inactive). As for `CCSc1nnc(NC(=O)CSc2sc3c(O)cc(=O)[nH]c3c2C#N)s1`, the figure is > 100 µM (inactive). With `O=C(CN1C(=O)/C(=C\c2ccco2)SC1=S)Nc1ccc(O)cc1C(=O)O`, the EC50 was > 100 µM (inactive). As for `O=C1/C(=C/c2ccco2)SC(=S)N1C1CCS(=O)(=O)C1` (stereo not drawn), the figure is > 100 µM (inactive). The result for `CC(C(=O)NCCc1ccc(O)c(O)c1)N1C(=O)/C(=C\c2ccco2)SC1=S` (stereo not drawn) reads > 100 µM (inactive).

`COc1cc(C(=O)NNC(=O)C2CC2)cc(OC)c1OC`: the EC50 is > 100 µM (inactive). As to `O=C(CN1C(=O)/C(=C\c2ccco2)SC1=S)Nc1ccc(C(=O)O)cc1`, the EC50 is > 100 µM (inactive). The result for `CC(C)C(C(=O)NC1CCS(=O)(=O)C1)N1C(=O)/C(=C\c2ccco2)SC1=S` (stereo not drawn) reads > 100 µM (inactive).

Take `Cc1ccc(NC(=O)CCNS(=O)(=O)c2ccc3[nH]c(=O)oc3c2)c(C)c1`: the EC50 is > 100 µM (inactive). The result for `CCN(C(=O)C(C)N1C(=O)/C(=C/c2ccco2)SC1=S)C1CCS(=O)(=O)C1` (stereo not drawn) reads > 100 µM (inactive); that for `O=C(CN1C(=O)/C(=C\c2ccco2)SC1=S)Nc1cccc(C(=O)O)c1`, > 100 µM (inactive). As to `N#Cc1c(SCC(=O)Nc2cccc(F)c2)sc2c(O)cc(=O)[nH]c12`, the EC50 is > 100 µM (inactive). As for `COc1ccc(CNC(=O)CSc2sc3c(O)cc(=O)[nH]c3c2C#N)cc1OC`, the figure is > 100 µM (inactive); as for `O=C(CCCN1C(=O)/C(=C\c2ccco2)SC1=S)Nc1ccc(O)cc1C(=O)O`, > 100 µM (inactive).

Consider `O=C(CCNS(=O)(=O)c1ccc2[nH]c(=O)oc2c1)Nc1cccc(-c2ccno2)c1`, for which the EC50 is > 100 µM (inactive). The result for `O=C(CN1C(=O)/C(=C/c2ccco2)SC1=S)Nc1ccc2nccnc2c1` reads > 100 µM (inactive); that for `O=C(C1CCN(S(=O)(=O)c2ccc3[nH]c(=O)oc3c2)CC1)N1CC=C(c2ccccc2)CC1`, > 100 µM (inactive); that for `COc1cccc(CNC(=O)CCNS(=O)(=O)c2ccc3[nH]c(=O)oc3c2)c1`, > 100 µM (inactive). As for `CC(C)NC(=O)CSc1sc2c(O)cc(=O)[nH]c2c1C#N`, the figure is > 100 µM (inactive). The result for `CCN(C(=O)CN1C(=O)/C(=C\c2ccco2)SC1=S)C1CCS(=O)(=O)C1` (stereo not drawn) reads > 100 µM (inactive).

As for `COc1ccc(NC(=O)CSc2sc3c(O)cc(=O)[nH]c3c2C#N)c(OC)c1`, the EC50 was > 100 µM (inactive). As for `COc1ccc(NC(=S)NCCC(c2ccccc2)c2ccccc2)cc1`, the figure is 44.8 µM; as for `CC(C(=O)Nc1ccc(C(=O)O)cc1)N1C(=O)/C(=C\c2ccco2)SC1=S` (stereo not drawn), > 100 µM (inactive). The result for `COc1ccc(OC)c(NC(=O)CCNS(=O)(=O)c2ccc3[nH]c(=O)oc3c2)c1` reads > 100 µM (inactive). As for `N#Cc1c(SCC(=O)Nc2nc3ccc(Br)cc3s2)sc2c(O)cc(=O)[nH]c12`, the figure is > 100 µM (inactive); as for `CCOc1ccccc1NC(=O)CCNS(=O)(=O)c1ccc2[nH]c(=O)oc2c1`, > 100 µM (inactive). Take `CCN(CC)C(=O)CSc1sc2c(O)cc(=O)[nH]c2c1C#N`: the EC50 is > 100 µM (inactive). In the case of `CC(C(=O)Nc1ccccc1C(=O)O)N1C(=O)/C(=C\c2ccco2)SC1=S` (stereo not drawn), the EC50 is > 100 µM (inactive). As for `CCc1ccc(NC(=O)CN(C)S(=O)(=O)c2ccc3[nH]c(=O)oc3c2)cc1`, the figure is > 100 µM (inactive); as for `N#Cc1c(SCC(=O)NCc2ccc3c(c2)OCO3)sc2c(O)cc(=O)[nH]c12`, > 100 µM (inactive). As for `N#Cc1cccc(NC(=O)CSc2sc3c(O)cc(=O)[nH]c3c2C#N)c1`, the figure is > 100 µM (inactive); as for `Cc1ccc(NC(=O)CCNS(=O)(=O)c2ccc3[nH]c(=O)oc3c2)cc1N(C)C`, > 100 µM (inactive).

For the compound `CC(C(=O)Nc1ccc(C(=O)O)c(O)c1)N1C(=O)/C(=C\c2ccco2)SC1=S` (stereo not drawn), the EC50 was > 100 µM (inactive).
